In patent EP0503710A2, “Flunarizine containing anti-neoplastic compositions” (JANSSEN PHARMACEUTICA N.V., priority 1991, dated 1992):

Key:
[1] = tested on: murine sarcoma MO4 (semi-resistant cell line); test: Subrenal capsule implant of MO4 tumour fragments in mice, change in tumor size at day 7; type: in vivo; conditions: daily intraperitoneal day 1 until day 6
Excerpt: (§1) The potential of flunarizine as a potent enhancer of adriamycine (ADR) cytotoxicity in the murine sarcoma MO4 (semi-resistant cell line) "in vitro" and "in vivo" and its reversed adriamycine resistance in the P388/ADR (adriamycine resistant cell line) murine leukemia "in vivo"can be demostrated by the following procedure.
(§2) Fragments of subcutaneously grown tumours were inserted under the renal capsule in mice and their initial size measured under a microscope. At day 7, the mice were killed and the final size of the implants determined. The change in tumor size was expressed as a percentage of the initial size, the latter considered to be 100%. Daily intraperitoneal treatment with ADR alone or in combination with flunarizine which was formulated in hydroxypropyl-β-cyclodextrin was installed from day 1 until day 6. Control animals received the vehicle hydroxypropyl-ß-cyclodextrin.

[2] = tested on: P388/ADR (adriamycine resistant cell line) murine leukemia; test: Subrenal capsule implant of P388/ADR tumour fragments in mice, change in tumor size at day 7; type: in vivo; conditions: P388/ADR implants under renal capsule, monotherapy, daily intraperitoneal day 1 until day 6
Excerpt: as §1, §2

| SMILES | effect on tumor growth ([1]; MO4 implants under renal capsule, flunarizine monotherapy in hydroxypropyl-β-cyclodextrin, size at day 7) | effect on tumor growth [2] | effect on tumor growth ([1]; MO4-tumor, adriamycine alone, dosages lower than 2.5 mg/kg) | growth reduction ([1]; MO4-tumor, adriamycine alone, half the maximal tolerated dose 2.5 mg/kg) |
| --- | --- | --- | --- | --- |
| Fc1ccc(C(c2ccc(F)cc2)N2CCN(CC=Cc3ccccc3)CC2)cc1 [Flunarizine, 1-[bis(4-fluorophenyl)methyl]-4-(3-phenyl-2-propenyl)piperazine] | no effect | no effect |  |  |
| COc1cccc2c1C(=O)c1c(O)c3c(c(O)c1C2=O)C[C@@](O)(C(=O)CO)C[C@@H]3O[C@H]1C[C@H](N)[C@H](O)[C@H](C)O1 [adriamycine] |  | inactive | no effect | 25% |
